# Data from article PMC4506051, “Pharmacokinetic Profiles of Active Ingredients and Its Metabolites Derived from Rikkunshito, a Ghrelin Enhancer, in Healthy Japanese Volunteers: A Cross-Over, Randomized Study” (PLoS ONE, 2015).
# Read-outs that look alike come from different tables or passages of the source.
# Experiments:
# [1] = Randomized crossover quantitative trial: plasma pharmacokinetics of nine ingredients after rikkunshito 2.5, 5.0 or 7.5 g; conditions: for Tmax / AUC(0-t) / Cmax / half-life: human
# From the text: The first trial was a nonrandomized, open-label, one-period design. The second trial was a randomized, open-label, three-arm, three-period design (Fig 1). With respect to inclusion criteria, the studies included healthy Japanese adults between 20 and 45 years of age with a body mass index between 18 and 25 who were willing and able to comply with the study requirements. Exclusion criteria for this study included a history of significant liver, heart, or vessel disease and consumption of supplements that contained any rikkunshito ingredients or any drug within 3 days to 1 week before the first dose. Other standard exclusion criteria included relevant allergies, pregnant or nursing females, and any alcohol or nicotine use. The sample size was set as more than 15 based on the Ministry of Health, Labour and Welfare’s guidelines. Subjects allocated to a screening test were randomized to one of three groups by the central allocation system (allocation ratio 1:1:1). A random sequence was generated using a computer. The safety endpoint was evaluated in all volunteers. This endpoint was defined on the basis of a physician’s judgement after examination or observation that a serious adverse event had occurred. Adverse events included death, a life-threatening event, an event requiring hospitalization for treatment or an extended stay in hospital, an event resulting in permanent or temporary disability or dysfunction, an event resulting in a congenital abnormality, or any other serious medical phenomenon. With respect to side effects, no specific conditions were defined, and all adverse events for which no causal relationship with the drug could be excluded were deemed to be side effects. In each stage during the 48-h period following rikkunshito administration, the physician monitored the patient for subjective symptoms, objective findings, swelling, body temperature (axillary), blood pressure (sitting), and pulse (sitting). The physician also conducted a hematological examination to measure the patient’s red blood cell, leucocyte and platelet counts, hemoglobin level, and hematocrit value. A biochemical examination was conducted to determine total protein, blood urea nitrogen, creatinine, uric acid, aspartate aminotransferase, alanine aminotransferase, total bilirubin, alkaline phosphatase, γ-glutamyltranspeptidase albumin, prothrombin time, total cholesterol, C-reactive protein, and potassium to identify any abnormalities in comparison with the subject’s condition prior to administration. All participants fasted for 12 h before administration and 4 h after administration of the study drug.
# In the second quantitative trial, 12-mL blood samples were collected at 0 (preadministration), 0.25, 0.5, 1, 2, 3, 4, 6, 8, 10, 12, 24, and 48 h after a single oral administration of rikkunshito (Lot H05142). A total of 3 daily doses were used in this trial, i.e., the clinical dose per administration (2.5 g) as the lowest dose, the clinical daily dose (7.5 g) as the highest dose, and an intermediate dose (5.0 g), to broadly discuss the pharmacokinetic characteristics of the ingredients measured. The trial participants were hospitalized overnight on the day they ingested rikkunshito, and returned home the following day after blood samples were collected at the 24-h time point. The participants returned to the hospital to provide blood samples at 48 h. The blood was immediately centrifuged at 1700 ×g for 15 min to obtain plasma. Plasma fractions were stored at −20°C or lower until analysis.
# Plasma, urine, and rikkunshito formulation samples were analyzed for rikkunshito ingredients concentrations using a liquid chromatography–mass spectrometry with tandem mass spectrometer assay (LC–MS/MS; API5000, Triple Quad 6500, or QTRAP5500; AB Sciex, Tokyo, Japan) or gas chromatography–mass spectrometry. Further information of analytical methods can be found at S1 Appendix.
# [2] = Exploratory trial: plasma concentration of rikkunshito ingredients after single oral rikkunshito 7.5 g; assay type: in vivo; conditions: for concentration at 0.5 h: 0.5 h after single oral rikkunshito 7.5 g, read-out: Plasma concentration, 0.5 h; for concentration at 1 h: 1 h after single oral rikkunshito 7.5 g; for concentration at 2 h: 2 h after single oral rikkunshito 7.5 g, read-out: Plasma concentration, 2 h; for concentration at 4 h: 4 h after single oral rikkunshito 7.5 g, read-out: Plasma concentration, 4 h; for concentration at 8 h: 8 h after single oral rikkunshito 7.5 g, read-out: Plasma concentration, 8 h
# Method in brief: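 Plasma and urine levels were measured by LC–MS/MS after one 7.5 g oral dose of rikkunshito. Samples were collected before dosing and at 0.5–8 h for blood, or in 0–4 h and 4–8 h fractions for urine. Synephrine was determined after protein-removal plate cleanup; the other ingredients after β-glucuronidase deconjugation (2 h, 37°C) and SPE.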
# [3] = Method validation: short-term stability in plasma
# [4] = Method validation: freeze-thaw stability in plasma
# [5] = plasma, po, 2.5 g, AUC0-last, rikkunshito 2.5 g single oral, n = 21, geometric mean (95% CI)
# [6] = plasma, po, 2.5 g, C max, rikkunshito 2.5 g single oral, n = 21, geometric mean (95% CI)
# [7] = plasma, po, 2.5 g, Median t max (range), rikkunshito 2.5 g single oral, n = 21, median (minimum–maximum)
# [8] = plasma, po, 5 g, AUC0-last, rikkunshito 5.0 g single oral, n = 19, geometric mean (95% CI)
# [9] = plasma, po, 5 g, C max, rikkunshito 5.0 g single oral, n = 19, geometric mean (95% CI)
# [10] = plasma, po, 5 g, Median t max (range), rikkunshito 5.0 g single oral, n = 19, median (minimum–maximum)
# [11] = plasma, po, 5 g, t 1/2, rikkunshito 5.0 g single oral, n = 19, geometric mean (95% CI)
# [12] = plasma, po, 7.5 g, AUC0-last, rikkunshito 7.5 g single oral, n = 19, geometric mean (95% CI)
# [13] = plasma, po, 7.5 g, C max, rikkunshito 7.5 g single oral, n = 19, geometric mean (95% CI)
# [14] = rikkunshito 7.5 g single oral, n = 19, geometric mean (95% CI)
# [15] = rikkunshito 7.5 g single oral, n = 19, median (minimum–maximum)
# [16] = human, in vivo, mean ± S.D., n = 4
# [17] = human, plasma, mean ± S.D., n = 4
smiles,measurement,setting,value
CC1(C)[C@@H](O)CC[C@]2(C)[C@H]3C(=O)C=C4[C@@H]5C[C@@](C)(C(=O)O)CC[C@]5(C)CC[C@@]4(C)[C@]3(C)CC[C@@H]12 [18β-Glycyrrhetinic acid],Tmax,"[1]; plasma, oral, t max, after rikkunshito administration, dose not given",8 h
same,AUC(0-t),[1]; [5],292 ng·h/mL
same,Cmax,[1]; [6],23 ng/mL
same,Tmax,[1]; [7],8 h
same,AUC(0-t),[1]; [8],638 ng·h/mL
same,Cmax,[1]; [9],44.2 ng/mL
same,Tmax,[1]; [10],8 h
same,half-life,[1]; [11],8.94 h
same,AUC(0-t),[1]; [12],832 ng·h/mL
same,Cmax,[1]; [13],55.6 ng/mL
same,half-life,"[1]; plasma, po, 7.5 g, t 1/2, rikkunshito 7.5 g single oral, n = 19, geometric mean (95% CI)",> 10 h
same,t 1/2,[1]; [14],11.7 (8.90–15.3) h
same,Median t max (range),[1]; [15],8.00 (5.98–23.7) h
same,Median t max (range),"[1]; rikkunshito 7.5 g single oral, n = 19, median (minimum–maximum), listed as 18β-glycyrrhetinic acid",exceeding 3 h
same,Cmax,"[2]; human, in vivo",58.2 ng/mL
same,"Short-term stability, RR","[3]; 1600 pg/mL, at room temperature for 4 h",89.0%
same,"Short-term stability, RR","[3]; 1600 pg/mL, at room temperature for 25 h",90.2%
same,"Short-term stability, RR","[3]; 64000 pg/mL, at room temperature for 4 h",98.9%
same,"Short-term stability, RR","[3]; 64000 pg/mL, at room temperature for 25 h",105.0%
C/C=C/C#CC#C/C=C/c1ccco1 [Atractylodin],Plasma concentration just before the administration,"[1]; all subjects, quantitative trial",BQL
same,AUC(0-t),"[1]; in vivo, po, 2.5 g",0.318 ng·h/mL
same,Cmax,"[1]; in vivo, po, 2.5 g",0.531 ng/mL
same,Tmax,"[1]; in vivo, po, 2.5 g, Median t max (range), rikkunshito 2.5 g single oral, n = 21, median (minimum–maximum)",0.5 h
same,AUC(0-t),"[1]; in vivo, po, 5 g",1.06 ng·h/mL
same,Cmax,"[1]; in vivo, po, 5 g",1.02 ng/mL
same,Tmax,"[1]; in vivo, po, 5 g, Median t max (range), rikkunshito 5.0 g single oral, n = 19, median (minimum–maximum)",0.5 h
same,half-life,"[1]; in vivo, po, 5 g, t 1/2, rikkunshito 5.0 g single oral, n = 19, geometric mean (95% CI)",0.746 h
same,AUC(0-t),"[1]; in vivo, po, 7.5 g",1.76 ng·h/mL
same,Cmax,"[1]; in vivo, po, 7.5 g",1.57 ng/mL
same,Tmax,"[1]; in vivo, po, 7.5 g, Median t max (range), rikkunshito 7.5 g single oral, n = 19, median (minimum–maximum)",≤ 1 h
same,t 1/2,[1]; [14],0.888 (0.687–1.15) h
same,Median t max (range),[1]; [15],0.500 (0.250–1.00) h
same,"Freeze-thaw stability, RR","[4]; atractylodin 0.600 ng/mL, deep freezer, 2 cycles",109.3%
same,"Freeze-thaw stability, RR","[4]; atractylodin 0.600 ng/mL, deep freezer, 3 cycles",115.1%
same,"Freeze-thaw stability, RR","[4]; atractylodin 16.0 ng/mL, deep freezer, 2 cycles",122.6%
same,"Freeze-thaw stability, RR","[4]; atractylodin 16.0 ng/mL, deep freezer, 3 cycles",133.6%
same,concentration at 0 h,"[2]; human, in vivo, 0 h (preadministration), single oral rikkunshito 7.5 g, mean ± S.D., n = 4, read-out: Plasma concentration, 0 h",0.328 ± 0.655 ng/mL
same,concentration at 0.5 h,[2]; [16],1.19 ± 0.913 ng/mL
same,concentration at 1 h,[2]; [16],1.38 ± 1.15 ng/mL
same,concentration at 2 h,[2]; [16],0.863 ± 1.01 ng/mL
same,concentration at 4 h,[2]; [16],1.14 ± 0.899 ng/mL
same,concentration at 8 h,[2]; [16],0.295 ± 0.59 ng/mL
same,Cmax,"[2]; human, in vivo, rikkunshito 7.5 g, four subjects, highest mean concentration over 0–8 h, read-out: C max in plasma (exploratory trial)",1.38 ng/mL
same,"Short-term stability, RR","[3]; atractylodin 0.600 ng/mL, deep freezer (−90.4°C to −69.5°C) for 4 h",95.6%
same,"Short-term stability, RR","[3]; atractylodin 0.600 ng/mL, deep freezer for 24 h",101.5%
same,"Short-term stability, RR","[3]; atractylodin 16.0 ng/mL, deep freezer (−90.4°C to −69.5°C) for 4 h",101.9%
same,"Short-term stability, RR","[3]; atractylodin 16.0 ng/mL, deep freezer for 24 h",102.9%
"COc1ccc(-c2oc3c(OC)c(OC)c(OC)c(OC)c3c(=O)c2OC)cc1OC [Heptamethoxyflavone, 3,3′,4′,5,6,7,8-heptamethoxyflavone]",AUC(0-t),[1]; [5],0.0849 ng·h/mL
same,Cmax,[1]; [6],0.0388 ng/mL
same,Tmax,[1]; [7],0.5 h
same,half-life,"[1]; plasma, po, 2.5 g, t 1/2, rikkunshito 2.5 g single oral, n = 21, geometric mean (95% CI)",1.92 h
same,AUC(0-t),[1]; [8],0.124 ng·h/mL
same,Cmax,[1]; [9],0.0582 ng/mL
same,Tmax,[1]; [10],1 h
same,half-life,[1]; [11],1.5 h
same,AUC(0-t),[1]; [12],0.225 ng·h/mL
same,Cmax,[1]; [13],0.105 ng/mL
same,Tmax,"[1]; plasma, po, 7.5 g, Median t max (range), rikkunshito 7.5 g single oral, n = 19, median (minimum–maximum)",≤ 1 h
same,t 1/2,[1]; [14],1.51 (1.15–1.98) h
same,t 1/2,"[1]; rikkunshito 7.5 g single oral, n = 19, geometric mean (95% CI), listed as heptamethoxyflavone",< 10 h
same,Median t max (range),[1]; [15],1.00 (0.250–1.02) h
same,"Freeze-thaw stability, RR","[4]; −30°C to −10°C, 3 cycles, higher concentration (800 / 320 / 4000 pg/mL)",113.5%
same,"Freeze-thaw stability, RR","[4]; −30°C to −10°C, 3 cycles, lower concentration (20 / 8 / 100 pg/mL)",107.1%
same,"Plasma concentration, 0 h","[2]; 0 h (preadministration), single oral rikkunshito 7.5 g, mean ± S.D., n = 4",BQL
same,concentration at 0.5 h,[2]; [17],0.171 ± 0.18 ng/mL
same,concentration at 1 h,[2]; [17],0.253 ± 0.301 ng/mL
same,concentration at 2 h,[2]; [17],0.157 ± 0.187 ng/mL
same,concentration at 4 h,[2]; [17],0.0569 ± 0.0821 ng/mL
same,concentration at 8 h,[2]; [17],0.00613 ± 0.0123 ng/mL
same,"Short-term stability, RR","[3]; room temperature 25 h, higher concentration (pachymic acid 800, heptamethoxyflavone 320 pg/mL)",91.2%
same,"Short-term stability, RR","[3]; room temperature 25 h, lower concentration (pachymic acid 20, heptamethoxyflavone 8 pg/mL)",90.3%
same,"Short-term stability, RR","[3]; room temperature (1°C to 30°C) 4 h, higher concentration (800 / 320 / 4000 pg/mL)",103.3%
same,"Short-term stability, RR","[3]; room temperature (1°C to 30°C) 4 h, lower concentration (20 / 8 / 100 pg/mL)",99.5%
